Consider ten molecules from patent US4822635A, “Sweetening with L-aminodicarboxylic acid esters” (General Foods Corporation, priority 1988, dated 1989).

Values joined by “and” are separate entries in the source; they are usually repeats but may differ in a detail not shown here. Identical values can stand only once. Where a SMILES comes first, the peptide text is derived from it. The star is where a group is joined. tBu = CC(C)(C)* A value given as a limit tells only on which side of the number the result lay.

The nature of series [1]: Sweetness determination by a panel of experts: aqueous solutions matched to sucrose standard solutions (sucrose equivalence). On the set-up: key to Sucrose equivalence: weight % sucrose solution of matched sweetness. The source says: A taste procedure for determination of sweetness merely involves the determination of sucrose equivalency. Sucrose equivalence for sweeteners are readily determined. The amount of a sweetener that is equivalent to a given weight percent sucrose can be determined by having a panel of tasters taste solutions of a sweetener at known concentrations and match its sweetness to standard solutions of sucrose.
The following examples further illustrate the invention. In the following examples, the sensory evaluation were obtained by a panel of experts using known weight percent aqueous solutions of the exemplified compounds and were matched to sucrose standard solutions.

A short description of series [2]: Stability (half life) in buffer solutions at pH 3, 5 and 7 at 50, 75 or 100 °C. The format is physicochemical. As to conditions: for half-life: buffer; for Stability in buffered solutions: buffered solutions at pH 3, 5 and 7; for Stability compared with aspartame: buffered solutions studied, except pH 3 at 100 °C. The protocol: α-L-Aspartyl-2-methylalanine[β(+)Fenchyl]ester (Example 9), α-L-Aspartyl-D-alanine[β(+)Fenchyl]ester, (Example 10) and aspartame L-Aspartyl-L-phenylalanine methyl ester were studied for stability at pH3, 5 and 7 in buffer solutions maintained at 50° C., 75° C., or 100° C., the following results were obtained: […]

The conditions of series [3]: prior art statement; cited from earlier work.
The mark [4] stands for this setting: concentration 0.00185 (weight percent aqueous solution).
The mark [5] stands for this setting: concentration 0.0025 (weight percent aqueous solution).
The mark [6] stands for this setting: concentration 0.00375 (weight percent aqueous solution).
[7] abbreviates: concentration 0.005 (weight percent aqueous solution).
The mark [8] stands for this setting: concentration 0.00692 (so in the source), weight percent aqueous solution.
[9] abbreviates: concentration 0.0075 (weight percent aqueous solution).
Where [10] appears, read: concentration 0.01 (weight percent aqueous solution).
[11] abbreviates: pH 3, buffer solution, 50 °C, pH 3.
[12] abbreviates: pH 3, buffer solution, 75 °C, pH 3.
Setting [13] is: pH 3, buffer solution, 100 °C, pH 3.
The mark [14] stands for this setting: pH 5, buffer solution, 50 °C, pH 5.
Setting [15] is: pH 5, buffer solution, 75 °C, pH 5.
[16] abbreviates: pH 5, buffer solution, 100 °C, pH 5.
Where [17] appears, read: pH 7, buffer solution, 100 °C, pH 7.
The mark [18] stands for this setting: concentration 0.00012 (weight percent aqueous solution).
Where [19] appears, read: concentration 0.00024 (weight percent aqueous solution).
[20] abbreviates: concentration 0.00047 (weight percent aqueous solution).
[21] abbreviates: concentration 0.00092 (weight percent aqueous solution).
Where [22] appears, read: concentration 0.010 (weight percent aqueous solution).
[23] abbreviates: concentration 0.025 (weight percent aqueous solution).
Where [24] appears, read: concentration 0.05 (weight percent aqueous solution).

For the molecule `CC(C)(NC(=O)[C@@H](N)CC(=O)O)C(=O)OC1C2(C)CCC(C2)C1(C)C` (single isomer, unassigned) [Example 9, α-L-Aspartyl-2-methylalanine[β(+)Fenchyl]ester], the Sucrose equivalence was 5.7% in series [1] (setting [4]); 6.0% and 4.3% and 4.25% in series [1] (setting [5]); 6.0% in series [1] (setting [6]); 7.37% and 7.0% and 6.0% in series [1] (setting [7]); 3.5% in series [1] (setting [8]); 8.5% in series [1] (setting [9]). The Sucrose equivalence in series [1] (setting [10]) was 9.25% and 9.0%. Also, the “Sweetness relative to sucrose” value in series [1] (setting [4]) was 3100 × Sucrose; in series [1] (setting [5]) it was 2400 × Sucrose and 1733 × Sucrose and 1700 × Sucrose; in series [1] (setting [6]), 1600 × Sucrose; in series [1] (setting [7]), 1475 × Sucrose and 1400 × Sucrose and 1200 × Sucrose; in series [1] (setting [8]), 3800 × Sucrose; in series [1] (setting [9]) it was 1133 × Sucrose. Moreover, the “Sweetness relative to sucrose” value in series [1] (setting [10]) was 925 × Sucrose and 900 × Sucrose. In addition, the half-life in series [2] (setting [11]) is 1540 h; in series [2] (setting [12]) it was 72 h; in series [2] (setting [13]), 8.4 h; in series [2] (setting [14]), 3600 h; in series [2] (setting [15]) it was 360 h; in series [2] (setting [16]), 33 h. Moreover, in series [2] (setting [17]), the half-life is 67 h. In series [2] (buffered solutions), the “Stability compared with Example 10” value is on record as “more stable”. Further, in series [2], the “Stability in buffered solutions” value is “outstanding stability”. In series [2], the “Stability compared with aspartame” value is “better stability”.

With `C[C@@H](NC(=O)[C@@H](N)CC(=O)O)C(=O)OC1C2(C)CCC(C2)C1(C)C` (single isomer, unassigned) [Example 10, α-L-Aspartyl-D-alanine[β(+)Fenchyl]ester], the Sucrose equivalence in series [1] (setting [18]) is listed as 0.6%; in series [1] (setting [19]), 1.42%; in series [1] (setting [20]) it was 2.28%; in series [1] (setting [21]) it was 4.7%; in series [1] (setting [4]) it was 6.5%; in series [1] (setting [5]) it was 6.0%. Further, the Sucrose equivalence in series [1] (setting [6]) is 8.6%; in series [1] (setting [7]), 9.3% and 10.0%; in series [1] (setting [9]), 9.0%; in series [1] (setting [10]), 11.0%. Also, the “Sweetness relative to sucrose” value in series [1] (setting [18]) was determined as 5000 × Sucrose; in series [1] (setting [19]) it was 5900 × Sucrose; in series [1] (setting [20]) it was 4900 × Sucrose; in series [1] (setting [21]), 5100 × Sucrose; in series [1] (setting [4]), 3500 × Sucrose; in series [1] (setting [5]), 2400 × Sucrose. Further, the “Sweetness relative to sucrose” value in series [1] (setting [6]) was 2300 × Sucrose; in series [1] (setting [7]), 1860 × Sucrose and 2000 × Sucrose; in series [1] (setting [9]), 1200 × Sucrose; in series [1] (setting [10]), 1100 × Sucrose. Further, the half-life in series [2] (setting [11]) was 528 h; in series [2] (setting [12]) it was 31.2 h; in series [2] (setting [13]) it was 3.9 h; in series [2] (setting [14]) it was 3140 h; in series [2] (setting [15]) it was 122 h; in series [2] (setting [16]) it was 14 h. In addition, the half-life in series [2] (setting [17]) is 10 h. For the same molecule, the “Stability in buffered solutions” value in series [2] is on record as “outstanding stability”. In series [2], the “Stability compared with aspartame” value is reported as “better stability”.

Consider `COC(=O)[C@H](Cc1ccccc1)NC(=O)[C@@H](N)CC(=O)O` [Aspartame, L-Aspartyl-L-phenylalanine methyl ester, reference compound] (H-Asp-Phe-OMe), for which the half-life in series [2] (setting [12]) is 21.6 h; in series [2] (setting [13]) it was 5.3 h; in series [2] (setting [15]), 26.4 h; in series [2] (setting [16]), 5.3 h; in series [2] (setting [17]), less than 1 h. Besides, the “Stability compared with Example 9 and Example 10” value in series [2] (pH 3, 100 °C, between Example 9 and Example 10) is given as “intermediate stability”.

As to `C[C@@H](NC(=O)[C@@H](N)CC(=O)O)C(=O)OC1C(C)(C)CCC1(C)C` [Example 1, L-Aspartyl-D-alanine(2,2,5,5-tetramethyl-1-cyclopentyl)ester], the Sucrose equivalence is given as 2.5 in series [1] (setting [7]), 3.7 in series [1] (setting [22]), 7.7 in series [1] (setting [23]) and 8.0 in series [1] (setting [24]).

Consider `CC(C)(NC(=O)[C@@H](N)CC(=O)O)C(=O)OC1C(C)(C)CCC1(C)C` [Example 2, N-(L-Aspartyl)-2-methylalanine(2,2,5,5-tetramethyl-1-cyclopentyl)ester], for which the Sucrose equivalence in series [1] (setting [7]) stood at 2.00; in series [1] (setting [22]), 3.25; in series [1] (setting [23]), 5.75.

With `C[C@@H](NC(=O)[C@@H](N)CC(=O)O)C(=O)OC1(C)CCCC1` [Example 6, N-L-Aspartyl-D-alanine (1-methyl-1-cyclopentyl)ester], in series [1] (setting [24]), the Sucrose equivalence is given as 2.0 and the “Sweetness relative to sucrose” value stood at 40 × Sucrose.

For `CC1CCC(C)C1OC(=O)[C@@H](C)NC(=O)[C@@H](N)CC(=O)O` (stereo partly drawn) [Example 7, N-L-Aspartyl-D-alanine(2,5-dimethylcyclopentyl)ester], the Sucrose equivalence came out at 1.16 in series [1] (setting [7]), 2.3 in series [1] (setting [22]), 4.82 in series [1] (setting [23]) and 7.50 in series [1] (setting [24]). In addition, the “Sweetness relative to sucrose” value in series [1] (setting [7]) amounted to 233 × Sucrose; in series [1] (setting [10]), 230 × Sucrose; in series [1] (setting [23]), 193 × Sucrose; in series [1] (setting [24]), 150 × Sucrose.

With `CC1CCC(C)C1OC(=O)C1(NC(=O)[C@@H](N)CC(=O)O)CC1` (stereo partly drawn) [L-Aspartyl-1-aminocyclopropyl-1-carboxylicacid, 2,5-dimethyl-1-cyclopentyl ester], the Sucrose equivalence in series [1] (setting [7]) was 1.0; in series [1] (setting [22]) it was 2.2; in series [1] (setting [23]), 3.3. The “Sweetness relative to sucrose” value in series [1] (setting [7]) came to 200 × Sucrose; in series [1] (setting [10]) it was 217 × Sucrose; in series [1] (setting [23]) it was 133 × Sucrose.

For `CCC(C)(C)OC[C@H](NC(=O)[C@@H](N)CC(=O)O)C(=O)OC` [L-aspartyl-O-t-amyl-L-serine methyl ester], the “Sweetness (in words)” value in series [3] is recorded as “significant sweetness”.

Regarding `COC(=O)[C@H](COC(C)(C)C)NC(=O)[C@@H](N)CC(=O)O` [L-aspartyl-O-t-butyl-L-serine methyl ester] (H-Asp-Ser(tBu)-OMe), the “Sweetness (in words)” value in series [3] is given as “significant sweetness”.
